The kinase profiling compilation of Christmann-Franck et al. (2016)

Assays:
Test in all cases: radiometric filter-binding kinase assay, Kinase HotSpot
Conditions in all cases: compound 0.5 µM; ATP 10 µM
MAPK13 (human) = MAPK13 (human) (UniProt O15264)
DYRK3 (human) = DYRK3 (human) (UniProt O43781)
MAP2K1 (human) = MAP2K1 (human) (UniProt Q02750)
CSNK1G2 (human) = CSNK1G2 (human) (UniProt P78368)
CLK3 (human) = CLK3 (human) (UniProt P49761)
CDK3 CCNE1 (human) = CDK3 CCNE1 (human) (UniProt Q00526+P24864)
MAP3K3 (human) = MAP3K3 (human) (UniProt Q99759)
MAP3K3 (human), sequence (Q99759 whole entry, looked up): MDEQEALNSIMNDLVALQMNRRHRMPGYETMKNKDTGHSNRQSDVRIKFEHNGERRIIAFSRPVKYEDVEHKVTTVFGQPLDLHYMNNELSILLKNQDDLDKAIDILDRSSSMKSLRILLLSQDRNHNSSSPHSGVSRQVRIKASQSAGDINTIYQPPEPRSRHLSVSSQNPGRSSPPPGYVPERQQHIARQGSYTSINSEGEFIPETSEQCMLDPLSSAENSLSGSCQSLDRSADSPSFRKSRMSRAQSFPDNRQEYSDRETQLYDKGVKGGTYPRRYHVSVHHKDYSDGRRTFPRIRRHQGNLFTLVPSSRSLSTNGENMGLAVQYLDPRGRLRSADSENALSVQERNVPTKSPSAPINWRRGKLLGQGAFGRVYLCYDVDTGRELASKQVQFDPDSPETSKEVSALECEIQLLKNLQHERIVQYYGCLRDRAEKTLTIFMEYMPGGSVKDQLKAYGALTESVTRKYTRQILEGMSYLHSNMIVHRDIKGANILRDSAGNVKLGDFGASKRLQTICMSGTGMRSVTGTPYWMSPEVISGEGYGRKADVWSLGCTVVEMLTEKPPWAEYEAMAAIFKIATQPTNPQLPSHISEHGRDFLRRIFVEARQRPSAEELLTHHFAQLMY

NLK (human) = NLK (human) (UniProt Q9UBE8)
ACVR1 (human) = ACVR1 (human) (UniProt Q04771)
RPS6KA3 KD1 KD2 (human) = RPS6KA3 KD1 KD2 (human) (UniProt P51812)
EPHB3 (human) = EPHB3 (human) (UniProt P54753)
PKN2 (human) = PKN2 (human) (UniProt Q16513)
ERBB4 (human) = ERBB4 (human) (UniProt Q15303)
ERBB4 (human), sequence (Q15303 whole entry, looked up): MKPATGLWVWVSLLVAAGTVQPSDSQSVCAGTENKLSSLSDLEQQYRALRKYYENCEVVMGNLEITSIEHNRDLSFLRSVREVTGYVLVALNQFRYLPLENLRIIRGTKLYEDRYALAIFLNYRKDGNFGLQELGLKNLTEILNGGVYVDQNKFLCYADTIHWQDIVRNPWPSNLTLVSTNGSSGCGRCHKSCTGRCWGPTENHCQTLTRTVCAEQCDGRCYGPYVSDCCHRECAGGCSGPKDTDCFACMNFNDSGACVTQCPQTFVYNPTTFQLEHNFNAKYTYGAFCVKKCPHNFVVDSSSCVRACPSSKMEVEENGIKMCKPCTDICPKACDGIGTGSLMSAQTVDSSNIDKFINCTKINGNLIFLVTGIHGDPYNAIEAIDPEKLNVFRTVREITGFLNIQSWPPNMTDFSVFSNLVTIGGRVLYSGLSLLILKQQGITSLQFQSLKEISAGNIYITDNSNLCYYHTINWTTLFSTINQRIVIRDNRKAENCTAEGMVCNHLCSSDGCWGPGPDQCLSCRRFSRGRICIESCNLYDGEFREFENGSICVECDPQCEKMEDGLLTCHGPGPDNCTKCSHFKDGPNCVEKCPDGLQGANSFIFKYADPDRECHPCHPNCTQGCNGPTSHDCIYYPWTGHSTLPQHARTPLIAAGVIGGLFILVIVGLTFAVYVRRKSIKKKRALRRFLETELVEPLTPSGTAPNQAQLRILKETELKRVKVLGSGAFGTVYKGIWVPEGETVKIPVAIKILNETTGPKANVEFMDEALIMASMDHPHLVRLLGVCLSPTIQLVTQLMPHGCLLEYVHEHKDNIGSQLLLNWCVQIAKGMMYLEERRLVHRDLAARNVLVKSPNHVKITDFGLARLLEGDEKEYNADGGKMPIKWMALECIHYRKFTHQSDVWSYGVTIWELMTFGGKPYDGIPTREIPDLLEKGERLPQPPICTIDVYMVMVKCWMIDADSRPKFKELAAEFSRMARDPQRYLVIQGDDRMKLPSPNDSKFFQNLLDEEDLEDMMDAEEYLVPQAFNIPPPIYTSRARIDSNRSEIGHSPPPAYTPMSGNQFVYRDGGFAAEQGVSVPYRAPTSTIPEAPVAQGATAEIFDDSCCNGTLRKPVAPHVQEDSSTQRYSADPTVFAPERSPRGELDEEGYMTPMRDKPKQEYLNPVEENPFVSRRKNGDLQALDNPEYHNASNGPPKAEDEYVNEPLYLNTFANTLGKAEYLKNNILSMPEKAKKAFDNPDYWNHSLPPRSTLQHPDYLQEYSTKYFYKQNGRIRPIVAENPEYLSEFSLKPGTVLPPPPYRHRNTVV

MAP3K11 (human) = MAP3K11 (human) (UniProt Q16584)
MAP3K11 (human), sequence (Q16584 whole entry, looked up): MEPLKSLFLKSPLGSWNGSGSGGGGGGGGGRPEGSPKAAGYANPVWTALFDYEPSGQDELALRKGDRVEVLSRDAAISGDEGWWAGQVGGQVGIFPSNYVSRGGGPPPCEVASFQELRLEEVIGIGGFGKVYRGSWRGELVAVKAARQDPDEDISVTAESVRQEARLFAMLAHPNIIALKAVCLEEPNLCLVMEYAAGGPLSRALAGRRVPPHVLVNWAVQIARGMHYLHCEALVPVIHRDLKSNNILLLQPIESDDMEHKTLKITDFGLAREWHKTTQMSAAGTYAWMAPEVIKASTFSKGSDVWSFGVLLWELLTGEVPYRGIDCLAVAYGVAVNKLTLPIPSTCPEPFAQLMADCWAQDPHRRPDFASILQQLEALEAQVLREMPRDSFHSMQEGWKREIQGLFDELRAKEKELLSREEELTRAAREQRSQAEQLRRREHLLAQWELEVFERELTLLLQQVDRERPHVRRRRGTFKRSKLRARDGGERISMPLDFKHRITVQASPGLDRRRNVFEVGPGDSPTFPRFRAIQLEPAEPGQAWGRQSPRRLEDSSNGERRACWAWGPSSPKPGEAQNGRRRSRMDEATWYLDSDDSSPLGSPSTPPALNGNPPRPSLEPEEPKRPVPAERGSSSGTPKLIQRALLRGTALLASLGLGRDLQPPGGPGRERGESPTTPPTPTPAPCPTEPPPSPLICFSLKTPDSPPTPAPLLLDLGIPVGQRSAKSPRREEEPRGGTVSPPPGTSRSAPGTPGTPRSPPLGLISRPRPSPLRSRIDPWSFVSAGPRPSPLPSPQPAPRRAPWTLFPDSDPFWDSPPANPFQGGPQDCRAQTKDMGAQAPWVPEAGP

KIT (human) = KIT (human) (UniProt P10721)
RET (human) = RET (human) (UniProt P07949)
PAK3 (human) = PAK3 (human) (UniProt O75914)
MARK1 (human) = MARK1 (human) (UniProt Q9P0L2)
MARK1 (human), sequence (Q9P0L2 whole entry, looked up): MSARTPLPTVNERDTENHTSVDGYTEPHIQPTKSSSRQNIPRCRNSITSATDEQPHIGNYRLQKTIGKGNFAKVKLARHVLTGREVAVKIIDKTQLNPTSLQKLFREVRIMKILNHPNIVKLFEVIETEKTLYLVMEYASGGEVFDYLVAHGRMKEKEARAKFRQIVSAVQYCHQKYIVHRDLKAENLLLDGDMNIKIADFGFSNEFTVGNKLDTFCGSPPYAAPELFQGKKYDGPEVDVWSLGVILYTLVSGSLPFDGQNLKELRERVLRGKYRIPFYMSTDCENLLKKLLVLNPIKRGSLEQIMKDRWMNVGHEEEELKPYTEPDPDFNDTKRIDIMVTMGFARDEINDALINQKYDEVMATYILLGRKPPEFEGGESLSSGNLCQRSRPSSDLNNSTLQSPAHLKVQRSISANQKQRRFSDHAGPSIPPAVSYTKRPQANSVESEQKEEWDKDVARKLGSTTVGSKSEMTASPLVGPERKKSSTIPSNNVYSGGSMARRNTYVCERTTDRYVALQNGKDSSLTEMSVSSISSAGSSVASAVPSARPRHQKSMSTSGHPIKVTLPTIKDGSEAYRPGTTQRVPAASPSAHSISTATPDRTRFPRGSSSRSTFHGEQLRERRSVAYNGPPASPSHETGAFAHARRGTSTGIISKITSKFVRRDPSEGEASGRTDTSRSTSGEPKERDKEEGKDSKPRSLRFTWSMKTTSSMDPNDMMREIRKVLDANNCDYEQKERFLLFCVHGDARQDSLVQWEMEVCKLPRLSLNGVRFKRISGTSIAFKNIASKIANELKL

[1] = target: JAK1 JH1 catalytic (human) (UniProt P23458)
HIPK4 (human) = HIPK4 (human) (UniProt Q8NE63)
MAP3K8 (human) = MAP3K8 (human) (UniProt P41279)
NEK1 (human) = NEK1 (human) (UniProt Q96PY6)
FER (human) = FER (human) (UniProt P16591)
ALK (human) = ALK (human) (UniProt Q9UM73)
SLK (human) = SLK (human) (UniProt Q9H2G2)
SIK2 (human) = SIK2 (human) (UniProt Q9H0K1)
NTRK3 (human) = NTRK3 (human) (UniProt Q16288)
TTK (human) = TTK (human) (UniProt P33981)
ZAP70 (human) = ZAP70 (human) (UniProt P43403)
MAP4K2 (human) = MAP4K2 (human) (UniProt Q12851)
ROS1 (human) = ROS1 (human) (UniProt P08922)
PRKCE (human) = PRKCE (human) (UniProt Q02156)
CLK1 (human) = CLK1 (human) (UniProt P49759)
TGFBR2 (human) = TGFBR2 (human) (UniProt P37173)
MINK1 (human) = MINK1 (human) (UniProt Q8N4C8)
ACVR1B (human) = ACVR1B (human) (UniProt P36896)
PDGFRB (human) = PDGFRB (human) (UniProt P09619)
PDGFRB (human), sequence (P09619 whole entry, looked up): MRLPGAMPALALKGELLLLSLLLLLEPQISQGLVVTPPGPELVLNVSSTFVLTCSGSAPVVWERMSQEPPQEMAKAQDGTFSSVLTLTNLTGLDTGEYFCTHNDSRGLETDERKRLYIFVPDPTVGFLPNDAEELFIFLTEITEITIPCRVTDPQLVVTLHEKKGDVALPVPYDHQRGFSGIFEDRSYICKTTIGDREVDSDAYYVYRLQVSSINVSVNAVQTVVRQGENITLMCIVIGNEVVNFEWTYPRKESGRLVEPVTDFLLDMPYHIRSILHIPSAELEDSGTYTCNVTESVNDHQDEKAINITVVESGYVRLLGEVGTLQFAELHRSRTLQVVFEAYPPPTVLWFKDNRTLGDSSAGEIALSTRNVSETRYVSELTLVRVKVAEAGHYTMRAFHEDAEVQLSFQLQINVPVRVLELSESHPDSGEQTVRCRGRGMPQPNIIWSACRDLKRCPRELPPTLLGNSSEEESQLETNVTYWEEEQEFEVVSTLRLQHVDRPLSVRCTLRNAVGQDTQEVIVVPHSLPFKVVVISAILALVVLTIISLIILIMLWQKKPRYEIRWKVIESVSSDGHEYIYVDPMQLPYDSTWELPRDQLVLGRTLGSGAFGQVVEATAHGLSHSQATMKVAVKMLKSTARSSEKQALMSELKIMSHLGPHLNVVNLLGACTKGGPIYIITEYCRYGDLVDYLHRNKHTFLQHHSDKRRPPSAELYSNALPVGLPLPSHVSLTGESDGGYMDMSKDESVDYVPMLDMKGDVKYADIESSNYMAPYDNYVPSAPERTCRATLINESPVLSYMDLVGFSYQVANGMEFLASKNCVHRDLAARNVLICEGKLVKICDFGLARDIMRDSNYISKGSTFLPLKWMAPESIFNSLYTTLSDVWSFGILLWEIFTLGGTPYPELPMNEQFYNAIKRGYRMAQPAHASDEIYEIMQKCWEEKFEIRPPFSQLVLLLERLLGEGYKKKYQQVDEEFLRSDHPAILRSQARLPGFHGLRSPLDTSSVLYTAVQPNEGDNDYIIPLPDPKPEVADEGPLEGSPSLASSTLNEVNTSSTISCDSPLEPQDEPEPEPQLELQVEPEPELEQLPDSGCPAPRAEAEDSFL

PDGFRA (human) = PDGFRA (human) (UniProt P16234)
[2] = target: TYK2 JH1 catalytic (human) (UniProt P29597)
CLK2 (human) = CLK2 (human) (UniProt P49760)
CHUK (human) = CHUK (human) (UniProt O15111)
GRK7 (human) = GRK7 (human) (UniProt Q8WTQ7)

MAP2K1 (human), sequence (Q02750 whole entry, looked up): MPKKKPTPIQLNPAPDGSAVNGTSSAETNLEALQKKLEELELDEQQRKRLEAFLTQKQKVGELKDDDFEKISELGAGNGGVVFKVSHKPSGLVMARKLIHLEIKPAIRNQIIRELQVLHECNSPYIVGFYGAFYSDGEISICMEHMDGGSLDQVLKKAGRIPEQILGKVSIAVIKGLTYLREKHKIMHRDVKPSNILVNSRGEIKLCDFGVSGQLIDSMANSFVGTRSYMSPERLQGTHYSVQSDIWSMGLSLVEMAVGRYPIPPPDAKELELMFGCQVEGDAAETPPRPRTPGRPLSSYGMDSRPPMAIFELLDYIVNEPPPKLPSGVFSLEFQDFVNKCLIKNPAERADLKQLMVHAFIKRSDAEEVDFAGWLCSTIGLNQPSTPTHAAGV

O=c1c(-c2ccc(F)cc2)c(-c2ccncc2)[nH]n1-c1ccc(Cl)cc1
residual activity (MAPK13 (human)): 102%
residual activity (DYRK3 (human)): 82.7%
residual activity (MAP2K1 (human)): 70.1%
residual activity (CSNK1G2 (human)): 93.8%
residual activity (CLK3 (human)): 88.7%
residual activity (CDK3 CCNE1 (human)): 86.9%
residual activity (MAP3K3 (human)): 96.2%
residual activity (NLK (human)): 16%
residual activity (ACVR1 (human)): 91.7%
residual activity (RPS6KA3 KD1 KD2 (human)): 94.3%
residual activity (EPHB3 (human)): 92.2%
residual activity (PKN2 (human)): 96.4%
residual activity (ERBB4 (human)): 73.2%
residual activity (MAP3K11 (human)): 98%
residual activity (KIT (human)): 94.9%
residual activity (RET (human)): 99.6%
residual activity (PAK3 (human)): 98.3%
residual activity (MARK1 (human)): 94.5%
residual activity [1]: 103%
residual activity (HIPK4 (human)): 94.6%
residual activity (MAP3K8 (human)): 87.1%
residual activity (NEK1 (human)): 78.7%
residual activity (FER (human)): 94.3%
residual activity (ALK (human)): 83.8%
residual activity (SLK (human)): 98.2%
residual activity (SIK2 (human)): 101%
residual activity (NTRK3 (human)): 99.2%
residual activity (TTK (human)): 110%
residual activity (ZAP70 (human)): 108%
residual activity (MAP4K2 (human)): 87.7%
residual activity (ROS1 (human)): 97.6%
residual activity (PRKCE (human)): 96.7%
residual activity (CLK1 (human)): 97%
residual activity (TGFBR2 (human)): 97.7%
residual activity (MINK1 (human)): 97.3%
residual activity (ACVR1B (human)): 123%
residual activity (PDGFRB (human)): 101%
residual activity (PDGFRA (human)): 103%
residual activity [2]: 90.9%
residual activity (CLK2 (human)): 99%
residual activity (CHUK (human)): 101%

O=S(=O)(NCCNC/C=C/c1ccc(Br)cc1)c1cccc2cnccc12
residual activity (MAPK13 (human)): 101%
residual activity (DYRK3 (human)): 83.5%
residual activity (MAP2K1 (human)): 90.5%
residual activity (CSNK1G2 (human)): 86.8%
residual activity (CLK3 (human)): 87.6%
residual activity (CDK3 CCNE1 (human)): 77.3%
residual activity (MAP3K3 (human)): 85.4%
residual activity (NLK (human)): 94.9%
residual activity (ACVR1 (human)): 96.4%
residual activity (RPS6KA3 KD1 KD2 (human)): 70.9%
residual activity (EPHB3 (human)): 92.5%
residual activity (PKN2 (human)): 78.9%
residual activity (ERBB4 (human)): 94.2%
residual activity (MAP3K11 (human)): 95.6%
residual activity (KIT (human)): 101%
residual activity (RET (human)): 102%
residual activity (PAK3 (human)): 103%
residual activity (MARK1 (human)): 91.2%
residual activity [1]: 87.3%
residual activity (HIPK4 (human)): 97.7%
residual activity (MAP3K8 (human)): 99.4%
residual activity (NEK1 (human)): 94.4%
residual activity (FER (human)): 97.6%
residual activity (ALK (human)): 101%
residual activity (SLK (human)): 93%
residual activity (SIK2 (human)): 95%
residual activity (NTRK3 (human)): 79.6%
residual activity (TTK (human)): 99.7%
residual activity (ZAP70 (human)): 97.9%
residual activity (MAP4K2 (human)): 51.1%
residual activity (ROS1 (human)): 99.6%
residual activity (PRKCE (human)): 86.4%
residual activity (CLK1 (human)): 103%
residual activity (TGFBR2 (human)): 92.1%
residual activity (MINK1 (human)): 91.1%
residual activity (PDGFRB (human)): 112%
residual activity (PDGFRA (human)): 98.8%
residual activity [2]: 103%
residual activity (CLK2 (human)): 106%
residual activity (CHUK (human)): 104%

Nc1ncnc2c1cnn2-c1ccccc1
residual activity (DYRK3 (human)): 96.8%
residual activity (MAP2K1 (human)): 93.9%
residual activity (CSNK1G2 (human)): 95.1%
residual activity (CLK3 (human)): 96.1%
residual activity (CDK3 CCNE1 (human)): 96.2%
residual activity (MAP3K3 (human)): 95.5%
residual activity (NLK (human)): 92.5%
residual activity (ACVR1 (human)): 101%
residual activity (RPS6KA3 KD1 KD2 (human)): 95%
residual activity (EPHB3 (human)): 93.5%
residual activity (PKN2 (human)): 125%
residual activity (ERBB4 (human)): 101%
residual activity (MAP3K11 (human)): 96%
residual activity (KIT (human)): 89.5%
residual activity (RET (human)): 98.2%
residual activity (PAK3 (human)): 98.8%
residual activity (GRK7 (human)): 100%
residual activity (MARK1 (human)): 94.8%
residual activity [1]: 98.1%
residual activity (HIPK4 (human)): 86.3%
residual activity (MAP3K8 (human)): 98.6%
residual activity (NEK1 (human)): 62.4%
residual activity (FER (human)): 99%
residual activity (ALK (human)): 90.9%
residual activity (SLK (human)): 98%
residual activity (SIK2 (human)): 99.8%
residual activity (NTRK3 (human)): 93.6%
residual activity (TTK (human)): 90.6%
residual activity (ZAP70 (human)): 91.5%
residual activity (MAP4K2 (human)): 94.9%
residual activity (ROS1 (human)): 94.2%
residual activity (PRKCE (human)): 98.3%
residual activity (CLK1 (human)): 91.8%
residual activity (TGFBR2 (human)): 105%
residual activity (MINK1 (human)): 88.9%
residual activity (ACVR1B (human)): 99.4%
residual activity (PDGFRB (human)): 94.7%
residual activity (PDGFRA (human)): 103%
residual activity [2]: 86.7%
residual activity (CLK2 (human)): 91.4%
residual activity (CHUK (human)): 92.6%
